In PubChem BioAssay (NCI):
Several values for one entry are separate records, joined by “and”; a condition that tells them apart may be missing. Equal values may be shown once.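 Protocol summary: plate cells (96-well), add compound at 5 concentrations, incubate 48 h, interpolate endpoints linearly. At the GI50, growth is halved. TGI marks complete inhibition of growth.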

How the values were obtained:
Assay in all cases: growth of human tumour cells (NCI), 48 h
HOP-18 NSCLC = test system: HOP-18 NSCLC
SF-268 CNS = test system: SF-268 CNS
HCC-2998 colon = test system: HCC-2998 colon
HCT-116 colon = test system: HCT-116 colon
SK-MEL-2 melanoma = test system: SK-MEL-2 melanoma
HT29 colon = test system: HT29 colon
HCT-15 colon = test system: HCT-15 colon
DMS 114 small cell lung = test system: DMS 114 small cell lung
A498 renal = test system: A498 renal
T-47D breast = test system: T-47D breast

| SMILES | TGI (HOP-18 NSCLC) | TGI (SF-268 CNS) | TGI (HCC-2998 colon) | TGI (HCT-116 colon) | TGI (SK-MEL-2 melanoma) | TGI (HT29 colon) | TGI (HCT-15 colon) | TGI (DMS 114 small cell lung) | GI50 (HCC-2998 colon) | GI50 (HCT-116 colon) | GI50 (SK-MEL-2 melanoma) | GI50 (A498 renal) | TGI (A498 renal) | GI50 (HT29 colon) | GI50 (HCT-15 colon) | GI50 (DMS 114 small cell lung) | GI50 (SF-268 CNS) | TGI (T-47D breast) | GI50 (T-47D breast) |
| --- | --- | --- | --- | --- | --- | --- | --- | --- | --- | --- | --- | --- | --- | --- | --- | --- | --- | --- | --- |
| COC(=O)/C(C)=C(/CCC1(C)OCCO1)O[Si](C)(C)C | > 100 µM | > 100 µM | > 100 µM | > 100 µM | > 100 µM | > 100 µM | > 100 µM | > 100 µM |  |  |  |  |  |  |  |  |  |  |  |
| CCC[CH2][Sn]1([CH2]CCC)[O]C(=O)c2cccnc2[O]1 |  |  | 14.6 µM | 11.4 µM | 3.81 µM | 19.5 µM | 3.66 µM | 4.05 µM | 3.76 µM | 3.61 µM | 1.71 µM | 2.72 µM | 7.27 µM | 5.97 µM | 1.9 µM | 1.95 µM |  |  |  |
| CCc1cc(C(=O)OC)cn1C(=N)c1ccc(Cl)cc1 | > 100 µM | > 100 µM | > 100 µM | > 100 µM | > 100 µM | > 100 µM | > 100 µM | > 100 µM |  |  |  |  | > 100 µM |  |  |  |  |  |  |
| Cc1cc(=O)n(-c2ccccc2C)c(C)n1 | > 100 µM | > 100 µM | > 100 µM | > 100 µM | > 100 µM | > 100 µM | > 100 µM | > 100 µM |  |  |  |  | > 100 µM |  |  |  |  |  |  |
| COc1cc2c(c(OC)c1OC)-c1ccc(SC)c(=O)cc1C(CO)C2 (stereo not drawn) | > 100 µM |  |  |  | < 0.01 µM | 0.385 µM | 0.723 µM and 1.3 µM |  | < 0.01 µM | < 0.01 µM | < 0.01 µM | < 0.01 µM |  |  | < 0.01 µM | < 0.01 µM | < 0.01 µM |  |  |
| Cc1ccc2nc(NC(=O)C(=O)C(C#N)c3nc4ccccc4s3)sc2c1 (stereo not drawn) | > 100 µM | > 100 µM | > 100 µM | > 100 µM | > 100 µM | > 100 µM | > 100 µM | 70.1 µM |  |  |  |  | 37.8 µM |  |  |  |  |  |  |
| CCS(CC)(CC)CC1CCCC2=CCC(P(=O)(c3ccccc3)c3ccccc3)CC21 (stereo not drawn) | 40.3 µM | 26.1 µM | 22 µM | 20.7 µM | 33.8 µM | 22.8 µM | 21.8 µM | 24.8 µM |  |  |  |  | 28 µM |  |  |  |  |  |  |
| Cc1ccc(S(=O)(=O)OC2CSS(=O)CC2OS(=O)(=O)c2ccc(C)cc2)cc1 (stereo not drawn) | 37.6 µM | 30.7 µM | 30.9 µM | 27.1 µM |  | 87.5 µM | 33.6 µM | 32.2 µM |  |  |  |  | 30.1 µM |  |  |  |  |  |  |
| OC(c1ccccc1)(c1ccccc1)c1ccncc1 | > 100 µM | > 100 µM | > 100 µM | > 100 µM | > 100 µM | > 100 µM | > 100 µM | > 100 µM |  |  |  |  |  |  |  |  |  |  |  |
| O=C(O)C(SC(=S)c1ccc(C(=S)SC(C(=O)O)c2ccccc2)cc1)c1ccccc1 (stereo not drawn) |  | > 100 µM | > 100 µM | > 100 µM | > 100 µM | > 100 µM | > 100 µM | > 100 µM |  |  |  |  | > 100 µM |  |  |  |  |  |  |
| Clc1ccc(C2SCc3nc4ccccc4n32)c(Cl)c1 (stereo not drawn) | 34.4 µM | 31.1 µM | 28.8 µM | 27.6 µM | 33.8 µM | 30.4 µM | 37.5 µM | 22.1 µM |  |  |  |  | 28.4 µM |  |  |  |  |  |  |
| CC1CCC(NC(=O)N(CCCl)N=O)CC1 (stereo not drawn) | 62.8 µM | 39.8 µM and 89.5 µM | 93.9 µM | 90.4 µM and 85.6 µM | 48.1 µM and 91.2 µM | 109 µM | 43.4 µM and 82.8 µM | 40.4 µM and 87.3 µM |  | 30.2 µM | 20.4 µM |  | 124 µM |  | 20.6 µM | 19 µM | 14.9 µM | 88.1 µM |  |
| COc1c(C)c2c(c(O)c1C/C=C(\C)CCC(=O)O)C(=O)OC2 | > 100 µM | > 100 µM | > 100 µM | > 100 µM | > 100 µM | > 100 µM | > 100 µM | 78.3 µM | 0.404 µM | 0.145 µM | 2 µM | 0.42 µM | > 100 µM | 0.248 µM | 0.15 µM |  | 0.578 µM | > 100 µM | 0.663 µM |
| COc1cc(/C=C2/C(=O)N(C(=O)OCC(C)C)C(Cc3cc(OC)c(OC)c(C)c3OC)C(=O)N2Cc2ccccc2)c(OC)c(C)c1OC (stereo not drawn) | > 100 µM | > 100 µM | > 100 µM | > 100 µM | > 100 µM | > 100 µM |  | > 100 µM |  |  |  |  | > 100 µM |  |  |  |  |  |  |
| CC(C)C1CC[C@@H](C)C[C@@]1(O)CC(N)=O (stereo partly drawn) | > 100 µM |  | > 100 µM | > 100 µM | > 100 µM | > 100 µM | > 100 µM | > 100 µM |  |  |  |  |  |  |  |  |  |  |  |
| COc1ccc(Br)c(N/N=C2\CCCNC2=O)c1 | > 100 µM |  | > 100 µM | > 100 µM | > 100 µM | > 100 µM | > 100 µM | > 100 µM |  |  |  |  |  |  |  |  |  |  |  |
| COc1ccc2n[se]nc2c1 |  | > 100 µM | > 100 µM |  | > 100 µM | > 100 µM | > 100 µM | > 100 µM |  |  |  |  |  |  |  |  |  |  |  |
| COC1CC(OS(=O)(=O)c2ccc([N+](=O)[O-])cc2)C(OC(=O)c2ccccc2)C(C)O1 (stereo not drawn) | > 100 µM | > 100 µM | > 100 µM | > 100 µM |  | > 100 µM | > 100 µM |  |  |  |  |  | > 100 µM |  |  |  |  |  |  |
| CN(C)CC/C(=N\Nc1ccc([N+](=O)[O-])cc1)c1ccccc1 | 20.5 µM | 27.4 µM |  | 24 µM | 28.2 µM | 21.2 µM | 27.2 µM | 18 µM |  |  |  |  | 27.2 µM |  |  |  |  |  |  |
